According to patent US11396516B2, “Tricyclic compounds as Cyp1 inhibitors” (The General Hospital Corporation, priority 2017, dated 2022):
“Also recorded” adds a separate entry of the source. Marks after values point to notes of the source that are not given here.

Columns and labels:
slc2a1a = experiment: Zebrafish proteomics; type: in vivo; conditions: zebrafish embryos, 40 hours post-treatment; visnagin 20 μM
gstp2 = experiment: Zebrafish proteomics; type: in vivo; conditions: zebrafish embryos, 40 hours post-treatment; visnagin 20 μM
[1] = patients treated with DOX; cited from earlier work
CYP1 enzymes = experiment: Zebrafish CYP1 enzyme levels after DOX treatment; conditions: doxorubicin alone
[2] = test system: myosin heavy chain B (MYHB); experiment: Zebrafish proteomics; type: in vivo
Procedure: (§1) Expression levels of 6085 proteins were measured in zebrafish treated with doxorubicin with or without visnagin. […] This is in contrast to other proteins that were modulated to a similar extent in fish treated with doxorubicin but were not reversed by co-treatment with visnagin. For instance, levels of myosin heavy chain B (MYHB) were decreased in fish treated with DOX alone and in fish treated with DOX+visnagin. Downregulation of MYHB has been previously described with DOX treatment (Ito H, PNAS 1990). Likewise, the inflammatory marker C-reactive protein 3 (CRP3) was increased in both DOX and DOX+visnagin-treated fish.

[3] = test system: C-reactive protein 3 (CRP3); experiment: Zebrafish proteomics; type: in vivo
Procedure: as §1

[4] = test system: DOX-induced cardiac apoptosis in C57/B16 mice; experiment: Mouse annexin model of acute DOX-induced cardiotoxicity (Anx-750 imaging); type: in vivo; conditions: DOX 15 mg/kg + carrier vs saline control
Procedure: DOX fluorescence imaging was carried out on IVIS spectrum with the filter setting 500 nm excitation/600 nm emission, 30 second exposure, with 135 μm in-plane resolution. A series of DOX phantoms, ranging from 0 to 0.03 mM was prepared in saline, and imaged on the IVIS spectrum with identical settings. Anx-750 fluorescence was detected with the filter setting 745 nm excitation/800 nm emission, 30 second exposure, and 135 μm resolution.
Annexin and DOX fluorescence signal was quantified and analyzed in ImageJ (National Institute of Health). For each heart, fluorescence intensity was averaged across 4-6 slices. Annexin uptake was normalized to the saline injected control animals. DOX fluorescence in the heart was quantified by calculating the signal-to-noise ratio (SNR=mean fluorescence intensityheart/standard deviationair). A threshold of two standard deviations above the saline injected control animals was applied to all DOX injected animals, with or without therapeutics. Only animals that met the threshold (thus DOX positive hearts) were included in the analysis. All statistical analysis was performed in Prism (Graphpad).
Doxorubicin was dissolved in 0.9% normal saline and administered at a dose of 15 mg/kg to adult C57/B16 mice via i.p. injection. For the treatment arm, compound of example 2 was dissolved in 10% DMSO and 90% olive oil (carrier) or carrier alone was administered via intraperitoneal injection on the contralateral side.
Twenty-two hours after DOX and treatment injections, Anx-750 (Annexin Vivo 750, Perkin Elmer) was injected intravenously according to manufacturer's instructions. After 2 hours of probe circulation, hearts were excised, sectioned into 1-mm slices along the short axis, and imaged on a commercial imaging system (IVIS spectrum, Perkin Elmer) to assess apoptosis as previously described (Chen et al., 2011).
DOX uptake in the heart was assessed by reflectance fluorescence imaging, and the resultant apoptosis was simultaneously imaged with Anx-750, a near-infrared fluorescent Annexin V probe (Annexin-Vivo 750 is an Annexin V conjugate with a near-infrared fluorochrome, see Chen et al., 2011). […] Referring to FIGS. 1A-1D, * p<0.05, ** p<0.01, and *** p<0.001, ANOVA. Carrier=10% DMSO+90% olive oil.

sqstm1 = experiment: Zebrafish proteomics; type: in vivo; conditions: zebrafish embryos, 40 hours post-treatment; visnagin 20 μM
cyp1b1 = experiment: Zebrafish proteomics; type: in vivo; conditions: zebrafish embryos, 40 hours post-treatment; visnagin 20 μM
Procedure: (§2) The proteomics analysis was carried out as described in the material and methods section. All protein abundance values are normalized to DMSO-treated control zebrafish. * p<0.05 compared to the DMSO control using the Benjamini-Hochberg method of correcting for multiple hypotheses.

CYP1A = experiment: Zebrafish proteomics; type: in vivo; conditions: zebrafish embryos, 40 hours post-treatment; visnagin 20 μM
Procedure: as §2

cyp1c1 = experiment: Zebrafish proteomics; type: in vivo; conditions: zebrafish embryos, 40 hours post-treatment; visnagin 20 μM
Procedure: as §2

rad9a = experiment: Zebrafish proteomics; type: in vivo; conditions: zebrafish embryos, 40 hours post-treatment; visnagin 20 μM
thbs1b = experiment: Zebrafish proteomics; type: in vivo; conditions: zebrafish embryos, 40 hours post-treatment; visnagin 20 μM
dhrs13l1 = experiment: Zebrafish proteomics; type: in vivo; conditions: zebrafish embryos, 40 hours post-treatment; visnagin 20 μM
LOC100332237 = experiment: Zebrafish proteomics; type: in vivo; conditions: zebrafish embryos, 40 hours post-treatment; visnagin 20 μM

- levels of CYP1 enzymes after doxorubicin treatment (CYP1 enzymes): robust induction
- Protein Abundance (Normalized to DMSO) cyp1b1 (cyp1b1): 6.26*
- Protein Abundance (Normalized to DMSO) cyp1a (CYP1A): 9.52*
- Protein Abundance (Normalized to DMSO) cyp1c1 (cyp1c1): 7.91*
SMILES: COc1cccc2c1C(=O)c1c(O)c3c(c(O)c1C2=O)C[C@@](O)(C(=O)CO)C[C@@H]3O[C@H]1C[C@H](N)[C@H](O)[C@H](C)O1 [DOX, doxorubicin]
- Protein Abundance (Normalized to DMSO) slc2a1a (slc2a1a): 1.19
- Protein Abundance (Normalized to DMSO) gstp2 (gstp2): 2.32*
- patients with dose-dependent cardiotoxicity [1]: up to 9%
- levels of CYP1 enzymes after doxorubicin treatment (CYP1 enzymes; listed as doxorubicin): significant upregulation; also recorded: significantly increased
- levels of myosin heavy chain B (MYHB) [2]: decreased
- levels of C-reactive protein 3 (CRP3) [3]: increased
- cardiac annexin uptake, DOX only group [4]: increased significantly
- Protein Abundance (Normalized to DMSO) sqstm1 (sqstm1): 2.78*
- Protein Abundance (Normalized to DMSO) rad9a (rad9a): 2.92*
- Protein Abundance (Normalized to DMSO) thbs1b (thbs1b): 2.29*
- Protein Abundance (Normalized to DMSO) dhrs13l1 (dhrs13l1): 3.02*
- Protein Abundance (Normalized to DMSO) LOC100332237 (LOC100332237): 3.03*
